Test results from patent US5606037A, “Processes antineoplastic heteronaphthoquinones” (BioChem Pharma Inc., priority 1995, dated 1997).
pIC50: −log10 of the molar value. Structures can show the parent of a compound that is named as a salt.

What was measured:
Format in all cases: cell-based, Human
[1] = test system: VLB/OV3; experiment: Resistance ratio of SKVLB over SKOV3 cytotoxicity (VLB/OV3); settings: ratio SKVLB to SKOV3; Table 1; 2880 min
Experimental: The microculture tetrazolium assay was used to test in vitro cytotoxicity. This assay is described in Plumb, J. A. et al., 1989 Cancer Research 49, 4435-4440, which is herein incorporated by reference. The cytotoxicity of compounds towards tumor cells is measured in vitro using the assay. This assay method is based upon the ability of live, but not dead cells to reduce the yellow water soluble dye 3-(4,5-dimethylthiazol-2-yl)-2,5-diphenyltetrazolium bromide (MTT) to its water insoluble purple formazan product.
SKOV3 (Ovarian adenocarcinoma)--provided by Dr. V. Ling, Ontario Cancer Institute.
SKVLB (Ovarian; multidrug resistant)--Dr. V. Ling, Ontario Cancer Institute.
For each assay, doxorubicin is included as an inter-assay standard. This allows us to monitor the behaviour of the assay in general, and in particular, to check that the SKVLB line has maintained its resistant phenotype.
Cells are plated out in 100 μl of culture medium in the microtiter plates at a density of around 1,500-4,000 cells per well. The plates are incubated overnight to allow the cells to become adherent after which the test compound is added (100 μl of appropriate dilution per well). The cells are incubated with test compound at 37° C. for 48 h after which the compound is replaced with fresh medium. After a further 48 h incubation at 37° C., 50 μl of MTT solution (2 mg/ml) is added to each well. The plates are incubated in the dark for 4 h at 37° C. after which the medium is removed. The MTT formazan product is extracted from the cells by the addition of 200 μl DMSO followed by 50 μl of Sorensen's buffer. The plates are shaken briefly and the absorbance at 570 nm is read using a Molecular Devices UV max plate reader. Curves are fit to the MTT assay data using a four parameter logistic equation, and the data are normalized to fit a 0% to 100% survival scale.

[2] = test system: T47D (Ductal carcinoma of breast); experiment: In vitro cytotoxicity, microculture tetrazolium (MTT) assay, T47D; settings: Homo sapiens, 48 h with compound, further 48 h, Table 1
Outline: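 Adherent cells (1,500-4,000/well) were exposed to compound in 1:3 dilutions from 100 μM to 1.7 nM, in quadruplicate, for 48 h at 37° C, followed by 48 h in fresh medium. MTT formazan was read at 570 nm, and data were fitted by four-parameter logistic on a 0-100% survival scale.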

[3] = test system: Lox (Melanoma); experiment: In vitro cytotoxicity, microculture tetrazolium (MTT) assay, LOX; settings: Homo sapiens, 48 h with compound, further 48 h, Table 1
Outline: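 LOX melanoma cells, 1,500–4,000 per well, exposed to compound (1:3 dilutions, 100 μM to 1.7 nM) for 48 h at 37° C., then 48 h in fresh medium. MTT reduction read at 570 nm; four-parameter logistic fit normalized to 0–100% survival.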

[4] = test system: HT 29 (Colon adenocarcinoma); experiment: In vitro cytotoxicity, microculture tetrazolium (MTT) assay, HT29; settings: Homo sapiens, HT-29, 48 h with compound, further 48 h, Table 1
Outline: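 HT29 cells exposed to compound (1:3 series, 100 μM to 1.7 nM, quadruplicate) for 48 h at 37 °C, then 48 h in fresh medium. Viability by MTT reduction, formazan absorbance at 570 nm; four-parameter logistic fit on 0-100% survival scale.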

[5] = test system: SKVLB (Ovarian; multidrug resistant); experiment: In vitro cytotoxicity, microculture tetrazolium (MTT) assay, SKVLB; settings: Homo sapiens; SKVLB multidrug resistant ovarian; 48 h with compound, further 48 h, MTT; Table 1
Outline: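 Multidrug-resistant SKVLB ovarian cells, 1,500–4,000 per well, exposed to compound (1:3 dilutions, 100 μM to 1.7 nM, quadruplicate) for 48 h at 37 °C, then 48 h in fresh medium. Viability by MTT reduction, formazan read at 570 nm; four-parameter logistic fit on a 0–100% survival scale.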

[6] = test system: SKOV3 (Ovarian adenocarcinoma); experiment: In vitro cytotoxicity, microculture tetrazolium (MTT) assay, SKOV3; settings: Homo sapiens, SK-OV-3; SKOV3 ovarian adenocarcinoma; 48 h with compound, further 48 h, MTT; Table 1
Outline: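 Cells plated overnight, then exposed to compound (1:3 dilutions, 100 μM to 1.7 nM, quadruplicate) 48 h at 37 °C, followed by 48 h in fresh medium. MTT 4 h, formazan extracted in DMSO/Sorensen's buffer pH 10.5, A570; four-parameter logistic fit on 0–100% survival scale.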

| SMILES | VLB/OV3 [1] | pIC50 [2] | pIC50 [3] | pIC50 [4] | pIC50 [5] | pIC50 [6] |
| --- | --- | --- | --- | --- | --- | --- |
| CC(=O)OC1C(C)OC(OC2OC(C(C)=O)CC3=C2C(=O)c2ccccc2C3=O)C(I)C1OC(C)=O (mixture of isomers) [BCH2065, (1'S,1R,1S) and (1'S,1S,3R)-methyl-(1-[2',6'-dideoxy-3',4'-diacetoxy-2'-iodo-L-arabino-hexopyranose]-5,10-dioxo-3,4,5,10-tetrahydronaphtho-[2,3-c]-pyran-3-yl) ketone] | 4 |  |  |  |  |  |
| CC(=O)C1CC2=C(C(=O)c3ccccc3C2=O)C(OCC2CCN(C(=O)OC(C)(C)C)CC2)O1.Cl (racemic) [BCH2068, Methyl-(1-O-[N-BOC-4-piperidine-methanol]-5,10-dioxo-3,4,5,10-tetrahydronaphthaleno-[2,3-c]pyran-3-yl) ketone, racemic, hydrochloride] | 1 |  |  |  |  |  |
| CO[C@H]1C[C@H](O[C@H]2O[C@H](C(C)=O)CC3=C2C(=O)c2ccccc2C3=O)O[C@@H](C)[C@H]1OS(C)(=O)=O [BCH2070, (1'-S, 1-R, 3-S)-methyl-(1-[2',3',4',6' tetradeoxy-3'-methoxy-4'-O-methanesulfonyl-L-lyxohexopyranose)-5,10-dioxo-3,4,5,10 tetrahydronaphtho-[2,3-c]pyran-3-yl) ketone] |  | 7.74 | 7.82 | 6.27 to 8.22 | 6.92 | 8.08 |
| COC(=O)[C@@]1(C)CC2=C(C(=O)c3ccccc3C2=O)[C@H](O[C@H]2C[C@H](NC(=O)C(F)(F)F)[C@H](O)[C@H](C)O2)O1 [BCH2076, (1'S,1S,3R)-1-(3'-trifluoroacetamido-2',3',6'-trideoxy-lyxo-L-hexopyranose)-3-methoxycarbonyl-3-methyl-3,4,5,10-tetrahydro-5,10-dioxo-naphtho-[2,3-c]pyran] |  | 5.19 | 5.74 | 5.59 | 4.91 | 5.84 |
| COC(=O)[C@]1(C)CC2=C(C(=O)c3ccccc3C2=O)[C@@H](O[C@H]2C[C@H](NC(=O)C(F)(F)F)[C@H](O)[C@H](C)O2)O1 [BCH2077, (1'S, 1R, 3S)-1-(3-trifluoroacetamido-2',3',6'-trideoxy-L-lyxohexopyranose)-3-methoxycarbonyl-3-methyl-3,4,5,10-tetrahydro-5,10-dioxo-1H-naphtho-[2,3-c]pyran] |  | 5.11 | 5.72 | 5.47 | 4.68 | 5.71 |
| COC(=O)[C@]1(C)CC2=C(C(=O)c3ccccc3C2=O)[C@H](O[C@H]2C[C@H](NC(=O)C(F)(F)F)[C@H](O)[C@H](C)O2)O1 [BCH2081, (1'S, 1S, 3S)-1-(3'-trifluoroacetamido-2',3',6'-trideoxy-lyxohexopyranose)-3-methoxycarbonyl-3-methyl-5,10-dioxo-4,5,10-trihydro-1H-naphtho-[2,3-c]-pyran] |  | 5.13 | 5.57 | 5.42 | 4.72 | 5.89 |
| CC(=O)[C@@]1(C)CC2=C(C(=O)c3ccccc3C2=O)[C@H](O[C@H]2C[C@H](NC(=O)C(F)(F)F)[C@H](O)[C@H](C)O2)O1 [BCH2082, (1'S, 1S, 3R)-1-(3'-trifluoroacetamido-2',3',6'-trideoxy-L-lyxohexopyranose)-3-acetyl-3-methyl-5,10-dioxo-4,5,10-trihydro-1H-naphtho-[2,3-c]-pyran] |  | 5.40 | 5.80 | 5.59 | 5.25 | 5.74 |
| CC[C@H]1CO[C@H](O[C@H]2C[C@H](NC(=O)C(F)(F)F)[C@H](O)[C@H](C)O2)C2=C1C(=O)c1ccccc1C2=O [BCH2091, (1'S, 1R, 4R)-5,10-dioxo-4-ethyl-1-(2',3',6'-trideoxy-3'-trifluoroacetamido-L-lyxohexopyranose)-3,4,5,10-tetrahydro-1H-naphtho-[2,3-c]pyran] |  | 4.80 | 5.48 | 4.95 | 4.49 | 4.87 |
| CC(=O)O[C@@H]1[C@H](C)O[C@@H](O[C@@H]2O[C@@H](C(C)=O)CC3=C2C(=O)c2ccccc2C3=O)C(Br)[C@@H]1OC(C)=O (stereo partly drawn) [BCH2099, (1'S,1S,3R)-methyl-(1-[2',6'-dideoxy-3',4'-diacetoxy-2'-bromo-L-lyxohexopyranose]-5,10-dioxo-3,4,5,10-tetrahydronaphtho-[2,3-c]-pyran-3-yl) ketone] |  | 5.47 to 6.14 | 5.96 to 6.89 | 5.77 to 6.52 | 5.08 to 6.34 | 5.70 to 6.22 |
| CC(=O)O[C@@H]1[C@H](C)O[C@@H](O[C@H]2O[C@H](C(C)=O)CC3=C2C(=O)c2ccccc2C3=O)C(Br)[C@@H]1OC(C)=O (stereo partly drawn) [BCH2100, (1'S,1R,3S)-methyl-(1-[2',6'-dideoxy-3',4'-diacetoxy-2'-bromo-L-lyxohexopyranose]-5,10-dioxo-3,4,5,10-tetrahydronaphtho-[2,3-c]-pyran-3-yl) ketone] |  | 5.40 | 5.52 | 5.29 | 5.09 | 5.57 |
| CC(C)C(=O)[C@@H]1CC2=C(C(=O)c3ccccc3C2=O)[C@@H](O[C@H]2C[C@H](NC(=O)C(F)(F)F)[C@H](O)[C@H](C)O2)O1 [BCH2112, (1'S, 1R, 3S)-isopropyl-[1-(2',3',6'-trideoxy-3'-trifluoroacetamido-L-lyxohexopyranose)-5,10-dioxo-3,4,5,10-tetrahydro-1H-naphtho-[2,3-c]-pyranyl]-ketone] |  | 6.57 | 6.68 | 7.19 | 5.77 | 6.98 |
| COC1OC(C(C)=O)=CC2=C1C(=O)c1ccccc1C2=O (stereo not shown) [BCH2129, 3-Aceto-5,10-dioxo-1-methoxy-5,10-dihydro-1H-naphtho-(2,3-c)-pyran] |  | 6.34 | 6.64 | 5.68 | 5.97 | 6.44 |
| CO[C@H]1C[C@H](O[C@H]2O[C@H](C(C)=O)C[C@]34O[C@]23C(=O)c2ccccc2C4=O)O[C@@H](C)[C@H]1OS(C)(=O)=O [BCH2141, (1'-S,1-R,3-S,4a-S,10a-S)-methyl-(1-[2',3',4',6'-tetradeoxy-3'-methoxy-4'-O-methanesulfonyl-L-lyxohexopyranose)-4a,10a-epoxy-5,10-dioxo-3,4,5,10-tetrahydronaphtho-[2,3-c]pyran-3-yl) ketone] |  | 5.42 | 5.74 | 5.19 | 5.00 | 5.09 |
| COC(=O)C1=CC2=C(C(=O)c3ccccc3C2=O)C(OC)O1 (stereo not shown) [BCH2160, 1-methoxy-3-methoxy carbonyl-5,10-dioxo-5,10-dihydro-1H-naphtho-[2,3-c]-pyran] |  | 5.02 | 5.13 | 4.80 | 5.04 | 5.31 |
| COC1OC(C(=O)NCCN2CCCC2)=CC2=C1C(=O)c1ccccc1C2=O (stereo not shown) [BCH2839, 1-methoxy-3-[2-(N-pyrrolidinyl)ethylaminocarbonyl]-5,10-dioxo-5,10-dihydro-1H-naphtho-[2,3-c]-pyran hydrochloride salt] |  | 6.54 to 7.24 | 6.01 to 6.58 | 6.31 to 6.76 | 6.34 to 6.65 | 7.34 to 7.44 |
